Literature values as cited in US20030072777A1, “Combinatorial anti-acne compositions” (priority 2001, published 2003).
Where two headings read alike, the source gives them in different places.

What was measured:
P. acnes = conditions: 5 percent benzoyl peroxide two times daily for five days
[1] = system: inflammatory lesions and comedones of acne vulgaris
sebaceous glands = conditions: retinoid treatment

| SMILES | Reduction of P. acnes population (P. acnes) | Average percent reduction of non-inflamed lesions (mean comedone counts) ([1]; Week 2, data from Chalker et al. FIG. 1) | Average percent reduction of inflamed lesions (mean inflammatory lesion counts) ([1]; Week 2, data from Chalker et al. FIG. 4) | Average percent reduction of non-inflamed lesions (mean comedone counts) ([1]; Week 4, data from Chalker et al. FIG. 1) | Average percent reduction of inflamed lesions (mean inflammatory lesion counts) ([1]; Week 4, data from Chalker et al. FIG. 4) | Average percent reduction of non-inflamed lesions (mean comedone counts) ([1]; Week 6, data from Chalker et al. FIG. 1) | Average percent reduction of inflamed lesions (mean inflammatory lesion counts) ([1]; Week 6, data from Chalker et al. FIG. 4) | Shrinkage of the glands (sebaceous glands) |
| --- | --- | --- | --- | --- | --- | --- | --- | --- |
| O=C(OOC(=O)c1ccccc1)c1ccccc1 [5.0% Benzoyl peroxide, Benzoyl peroxide] | more than 95% | 12% | 27% | 15% | 21% | 28% | 46% |  |
| CC1=C(/C=C/C(C)=C/C=C/C(C)=C\C(=O)O)C(C)(C)CCC1 [isotretinoin, 13-cis retinoic acid] |  |  |  |  |  |  |  | about 90% |
